The values below come from the NIST ThermoML archive (doi:10.1021/je060054+).

A short description of the data set: refractive index (Na D-line) (dimensionless). The following applies: 298.15 K; 101.33 kPa; Liquid; Standard Abbe refractometry.

± gives the expanded uncertainty stated by the source.

In the case of `CCO` [ethanol], the refractive index came out at 1.35941 ± 0.00073. With `O` [water] the figure was 1.3325 ± 0.00072. For the compound `CCOC(C)=O` [ethyl acetate], the refractive index stood at 1.36978 ± 0.00072.

With `CCCCCO` [pentan-1-ol], the refractive index came to 1.4077 ± 0.00073.

Usually refractive index stands for a measure of how strongly the sample bends light.
